Experimental data from US10100284B2, “Method for inducing differentiation of pluripotent stem cells into endodermal cells” (TOAGOSEI CO., LTD., priority 2013, dated 2018).
Where no end group is shown, it is not given here.

Tested on: iPS cells (clone name: 201B2 or 201B7)
Test: AFP dot blotting of iPS cell culture supernatant
Type: cell-based, human
Settings: peptide concentration 6.0 μM; 8th to 20th day of culture in the presence of the peptide; FIG. 5
Protocol: The stem cell differentiation-inducing activities of the differentiation-inducing synthetic peptides (Samples 2-7) obtained in Example 1 above were evaluated by measuring changes over time in AFP expression levels (typically, extracellular excretion levels). AFP is a differentiation marker protein that is known to be in expressed in cells that have differentiated into liver precursor cells in particular of the endodermal cells. iPS cells that had been cultured and passaged in vitro were used as the test cells. The details of the evaluation test are as follows.
As in Example 3, the peptides of Samples 2 through 7 were added to a peptide concentration of 6.0 μM to added to medium containing cultured iPS cells (clone name: 201B2 or 201B7), and the cells were cultured (Sample Groups 2 through 7). A peptide free-group (comparative example) using cells cultured under the same conditions as in Sample groups 2 through 7 without the addition of a peptide was also established as a control group. […]
After completion of the antigen-antibody reaction with the secondary antibody, Lumina Crescendo Western HRP Substrate (Merck Millipore Corp.) was dripped on the nitrocellulose membrane to react the substrate with the HRP-labeled antibody (secondary antibody), and the target protein (AFP) was detected with a LAS-3000 luminescent image analyzer (Fuji Film).

RLLLLLLVGLTAPALAKKRTLRKNDRKKR-COOH (RLLLLLLVGLTAPALAKKRTLRKNDRKKR-OH) [Sample 4]
amount of AFP in the culture supernatant in comparison with peptide-free group with the same culture time: particularly dramatic
